Assay results from US20250163054A1, “SUBSTITUTED BICYCLIC HETEROARYL COMPOUNDS USEFUL AS INHIBITORS OF TLR9” (Bristol-Myers Squibb Company, priority 2022, published 2025).

Columns and labels:
Type in all cases: cell-based
human TLR7 = molecular target: T1, human TLR7 (Homo sapiens, UniProt Q9NYK1); experiment: TLR7/8/9 Inhibition Reporter Assays (TLR7); details: HEK-Blue cells overexpressing human TLR7, SEAP reporter, stimulated with TLR7 ligand gardiquimod
T1 construct: host or cells: HEK-Blue cells (HEK293-derived reporter line)
T1 sequence (Q9NYK1 27-1049): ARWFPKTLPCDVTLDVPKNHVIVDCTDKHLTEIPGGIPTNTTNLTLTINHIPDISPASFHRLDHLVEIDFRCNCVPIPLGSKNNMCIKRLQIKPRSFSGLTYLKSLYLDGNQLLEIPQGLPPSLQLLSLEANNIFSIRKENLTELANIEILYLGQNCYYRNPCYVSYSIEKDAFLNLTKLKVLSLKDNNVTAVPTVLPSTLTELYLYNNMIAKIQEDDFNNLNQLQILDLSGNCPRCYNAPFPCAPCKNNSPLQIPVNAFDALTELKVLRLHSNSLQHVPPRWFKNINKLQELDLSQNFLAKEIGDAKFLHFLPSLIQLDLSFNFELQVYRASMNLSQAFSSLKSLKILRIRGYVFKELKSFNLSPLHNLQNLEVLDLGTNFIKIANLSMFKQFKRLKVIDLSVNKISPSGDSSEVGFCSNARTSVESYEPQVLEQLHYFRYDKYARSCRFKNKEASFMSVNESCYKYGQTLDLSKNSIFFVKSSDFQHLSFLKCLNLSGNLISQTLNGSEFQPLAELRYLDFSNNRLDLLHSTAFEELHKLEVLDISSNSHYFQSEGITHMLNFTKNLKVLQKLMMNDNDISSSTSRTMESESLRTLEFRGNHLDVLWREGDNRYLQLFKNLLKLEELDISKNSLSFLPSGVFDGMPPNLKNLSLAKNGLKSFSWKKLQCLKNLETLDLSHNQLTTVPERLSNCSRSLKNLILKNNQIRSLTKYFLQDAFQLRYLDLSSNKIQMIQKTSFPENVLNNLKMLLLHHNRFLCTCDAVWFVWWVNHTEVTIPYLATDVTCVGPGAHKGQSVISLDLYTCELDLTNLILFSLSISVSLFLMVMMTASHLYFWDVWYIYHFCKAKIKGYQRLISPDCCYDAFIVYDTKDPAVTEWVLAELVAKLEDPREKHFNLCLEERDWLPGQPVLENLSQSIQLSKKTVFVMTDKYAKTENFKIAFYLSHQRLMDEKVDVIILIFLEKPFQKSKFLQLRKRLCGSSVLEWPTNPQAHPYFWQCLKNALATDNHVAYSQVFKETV
Outline: (§1)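 HEK-Blue cells overexpressing human TLR7, TLR8 or TLR9 with NF-κB/AP-1-driven SEAP reporter, pre-treated 60 min with compound ([…]). Stimulated with […] (TLR7), […] (TLR8) or ODN2006 200 nM (TLR9), then 22 h at 37° C; SEAP measured, % inhibition relative to agonist-plus-DMSO and known-inhibitor wells.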

human TLR8 = molecular target: T2, human TLR8 (Homo sapiens, UniProt Q9NR97); experiment: TLR7/8/9 Inhibition Reporter Assays (TLR8); details: HEK-Blue cells overexpressing human TLR8, SEAP reporter, stimulated with TLR8 ligand R848
T2 construct: host or cells: HEK-Blue cells (HEK293-derived reporter line)
T2 sequence (Q9NR97 27-1041): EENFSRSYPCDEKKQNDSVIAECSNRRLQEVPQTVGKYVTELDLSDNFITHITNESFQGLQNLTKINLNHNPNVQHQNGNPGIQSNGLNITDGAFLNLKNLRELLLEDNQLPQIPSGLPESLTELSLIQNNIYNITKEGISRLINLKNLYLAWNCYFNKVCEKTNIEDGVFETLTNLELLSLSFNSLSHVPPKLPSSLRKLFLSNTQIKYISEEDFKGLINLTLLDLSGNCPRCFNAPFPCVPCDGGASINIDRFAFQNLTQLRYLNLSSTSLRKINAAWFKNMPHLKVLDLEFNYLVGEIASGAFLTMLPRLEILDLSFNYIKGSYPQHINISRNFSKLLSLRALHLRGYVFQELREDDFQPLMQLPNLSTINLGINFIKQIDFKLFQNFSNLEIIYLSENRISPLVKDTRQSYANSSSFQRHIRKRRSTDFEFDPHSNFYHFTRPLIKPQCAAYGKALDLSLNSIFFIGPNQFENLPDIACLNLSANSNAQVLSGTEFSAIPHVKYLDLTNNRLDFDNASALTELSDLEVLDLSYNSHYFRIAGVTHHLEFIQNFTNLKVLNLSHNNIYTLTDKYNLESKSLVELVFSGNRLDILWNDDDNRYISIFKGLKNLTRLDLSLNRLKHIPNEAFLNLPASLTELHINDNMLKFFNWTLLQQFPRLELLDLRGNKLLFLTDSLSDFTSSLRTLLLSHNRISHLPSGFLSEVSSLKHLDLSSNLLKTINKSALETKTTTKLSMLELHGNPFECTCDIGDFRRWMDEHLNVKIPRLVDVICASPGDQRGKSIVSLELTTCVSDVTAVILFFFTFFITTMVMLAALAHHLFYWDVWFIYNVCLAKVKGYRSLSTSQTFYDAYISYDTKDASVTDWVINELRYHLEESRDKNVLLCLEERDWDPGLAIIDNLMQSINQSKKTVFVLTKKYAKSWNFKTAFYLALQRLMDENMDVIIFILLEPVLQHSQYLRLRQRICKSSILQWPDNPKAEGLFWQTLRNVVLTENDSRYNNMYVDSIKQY
Outline: as §1

human TLR9 = molecular target: T3, human TLR9 (Homo sapiens, UniProt Q9NR96); experiment: TLR7/8/9 Inhibition Reporter Assays (TLR9); details: HEK-Blue cells overexpressing human TLR9, SEAP reporter, stimulated with TLR9 ligand ODN2006
T3 construct: host or cells: HEK-Blue cells (HEK293-derived reporter line)
T3 sequence (Q9NR96 26-1032): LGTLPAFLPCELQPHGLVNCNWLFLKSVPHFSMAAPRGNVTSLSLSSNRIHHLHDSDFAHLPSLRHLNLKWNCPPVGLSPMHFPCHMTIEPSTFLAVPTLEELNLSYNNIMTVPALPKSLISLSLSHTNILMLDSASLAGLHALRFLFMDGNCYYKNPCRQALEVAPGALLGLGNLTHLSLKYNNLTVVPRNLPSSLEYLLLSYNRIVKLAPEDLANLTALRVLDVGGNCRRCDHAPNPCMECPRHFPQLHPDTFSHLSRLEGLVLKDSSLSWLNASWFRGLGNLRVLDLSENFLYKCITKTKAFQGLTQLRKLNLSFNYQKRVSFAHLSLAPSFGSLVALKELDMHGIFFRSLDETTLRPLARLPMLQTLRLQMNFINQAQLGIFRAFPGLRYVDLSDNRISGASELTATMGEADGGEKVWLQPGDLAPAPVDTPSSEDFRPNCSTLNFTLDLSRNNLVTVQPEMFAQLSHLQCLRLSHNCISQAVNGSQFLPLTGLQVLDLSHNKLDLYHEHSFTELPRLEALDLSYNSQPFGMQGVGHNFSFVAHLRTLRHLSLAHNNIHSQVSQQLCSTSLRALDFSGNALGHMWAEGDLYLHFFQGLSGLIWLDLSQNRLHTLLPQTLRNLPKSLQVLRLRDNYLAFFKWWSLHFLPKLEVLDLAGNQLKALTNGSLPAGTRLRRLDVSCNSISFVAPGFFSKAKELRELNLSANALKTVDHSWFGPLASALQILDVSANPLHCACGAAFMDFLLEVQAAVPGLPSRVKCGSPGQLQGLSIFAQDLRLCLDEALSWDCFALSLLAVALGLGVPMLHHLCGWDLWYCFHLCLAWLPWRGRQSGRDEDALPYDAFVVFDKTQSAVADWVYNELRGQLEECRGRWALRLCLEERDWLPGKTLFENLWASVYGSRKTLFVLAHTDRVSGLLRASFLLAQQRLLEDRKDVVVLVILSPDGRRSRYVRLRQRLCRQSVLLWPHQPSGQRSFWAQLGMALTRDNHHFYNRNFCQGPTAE
Outline: as §1

SMILES	IC50 (human TLR7)	IC50 (human TLR8)	IC50 (human TLR9)
Cc1nc(-c2ccc(CN3CCN(C(C)C)CC3)cc2)cc2c1nc(-c1ccc(S(C)(=O)=O)cc1)n2C [Example 5, 6-(4-((4-isopropylpiperazin-1-yl)methyl)phenyl)-1,4-dimethyl-2-(4-(methylsulfonyl)phenyl)-1H-imidazo[4,5-c]pyridine]	7200 nM	22000 nM	790 nM
Cc1nc(-c2ccc(N3CC4(CN(CC(C)C)C4)C3)cc2)cc2c1nc(-c1ccc(S(C)(=O)=O)cc1)n2C [Example 57, 6-(4-(6-isobutyl-2,6-diazaspiro[3.3]heptan-2-yl)phenyl)-1,4-dimethyl-2-(4-(methylsulfonyl)phenyl)-1H-imidazo[4,5-c]pyridine]	4000 nM	4800 nM	150 nM
CC(C)N1CCC(N2CC=C(c3cc4c(nc(-c5ccc(S(C)(=O)=O)cc5)n4C)c(C(F)(F)F)n3)CC2)CC1 [Example 35, 6-(1-(1-isopropylpiperidin-4-yl)-1,2,3,6-tetrahydropyridin-4-yl)-1-methyl-2-(4-(methylsulfonyl)phenyl)-4-(trifluoromethyl)-1H-imidazo[4,5-c]pyridine]	3300 nM	> 50000 nM	160 nM
COc1ccc(-c2nc3cnc(-c4ccc(N5CC6(CN(CC(C)C)C6)C5)cc4)cc3n2C2CC2)cc1OC [Example 85, 1-cyclopropyl-2-(3,4-dimethoxyphenyl)-6-(4-(6-isobutyl-2,6-diazaspiro[3.3]heptan-2-yl)phenyl)-1H-imidazo[4,5-c]pyridine]	3200 nM	2500 nM	170 nM
Cc1nc(-c2ccc(CCN3CCC(N4CCOCC4)CC3)cc2)cc2c1nc(-c1ccc(S(C)(=O)=O)cc1)n2C [Example 53, 4-(1-(4-(1,4-dimethyl-2-(4-(methylsulfonyl)phenyl)-1H-imidazo[4,5-c]pyridin-6-yl)phenethyl)piperidin-4-yl) morpholine]	3100 nM	7600 nM	74 nM

Stronger by IC50 (human TLR7), values ahead:

IC50 (human TLR7)	IC50 (human TLR8)	IC50 (human TLR9)	SMILES
1900 nM	1800 nM	41 nM	Cc1nc(-c2ccc(N3C[C@@H]4CN(C(C)C)C[C@@H]4C3)cc2)cc2c1nc(-c1ccc(S(C)(=O)=O)cc1)n2C [Example 67, 6-(4-((3aR,6aS)-5-isopropylhexahydropyrrolo[3,4-c]pyrrol-2(1H)-yl)phenyl)-1,4-dimethyl-2-(4-(methylsulfonyl)phenyl)-1H-imidazo[4,5-c]pyridine]
3000 nM	3300 nM	450 nM	Cc1nc(-c2ccc(N3CCN(C4CCC4)CC3)cc2)cc2c1nc(-c1ccc(S(C)(=O)=O)cc1)n2C [Example 21, 6-(4-(4-cyclobutylpiperazin-1-yl)phenyl)-1,4-dimethyl-2-(4-(methylsulfonyl)phenyl)-1H-imidazo[4,5-c]pyridine]
1500 nM	18000 nM	140 nM	COc1ccc(-c2nc3c(C)nc(-c4ccc(N5CCN(CC6CC6)CC5)cc4)cc3n2C)cc1OC [Example 18, 6-(4-(4-(cyclopropylmethyl)piperazin-1-yl)phenyl)-2-(3,4-dimethoxyphenyl)-1,4-dimethyl-1H-imidazo[4,5-c]pyridine]
590 nM	15000 nM	61 nM	COc1ccc(-c2nc3c(C)nc(-c4ccc(N5CCC6(CC5)CN(C5CCC5)C6)cc4)cc3n2C)cc1OC [Example 80, 6-(4-(2-cyclobutyl-2,7-diazaspiro[3.5]nonan-7-yl)phenyl)-2-(3,4-dimethoxyphenyl)-1,4-dimethyl-1H-imidazo[4,5-c]pyridine]
1700 nM	> 50000 nM	140 nM	COCCN1CC2(CCN(c3ccc(-c4cc5c(nc(-c6ccc(OC)c(OC)c6)n5C)c(C)n4)cc3)CC2)C1 [Example 103, 2-(3,4-dimethoxyphenyl)-6-(4-(2-(2-methoxyethyl)-2,7-diazaspiro[3.5]nonan-7-yl)phenyl)-1,4-dimethyl-1H-imidazo[4,5-c]pyridine]
890 nM	28000 nM	97 nM	COc1ccc(-c2nc3c(C)nc(-c4ccc(N5CCC6(CC5)CN(CC(C)C)C6)cc4)cc3n2C)cc1OC [Example 75, 2-(3,4-dimethoxyphenyl)-6-(4-(2-isobutyl-2,7-diazaspiro[3.5]nonan-7-yl)phenyl)-1,4-dimethyl-1H-imidazo[4,5-c]pyridine]
2800 nM	790 nM	220 nM	CC(C)N1CC2(CCN(c3ccc(-c4cc5c(cn4)nc(-c4ccc(S(C)(=O)=O)cc4)n5C)cc3)C2)C1 [Example 64, 6-(4-(2-isopropyl-2,6-diazaspiro[3.4]octan-6-yl)phenyl)-1-methyl-2-(4-(methylsulfonyl)phenyl)-1H-imidazo[4,5-c]pyridine]
